{"source": "patent US20130317096A1", "about": "“SYNERGISTIC INTERACTION OF AT LEAST ONE VITAMIN E COMPONENT AND TYROSINASE INHIBITORS FOR DERMATOLOGICAL APPLICATIONS” (Davos Life Science Pte Ltd, priority 2010, published 2013)", "key": {"[1]": {"test_system": "B16 cells xenografted on the flank of nude mice", "experiment": "B16 xenograft model in nude mice", "type": "in vivo", "details": "cells pre-treated with 20 μM for 1 week, 14 days oral supplementation", "procedure": "The experimental protocol was approved by the IACUC Committee of the A-STAR Biological Resource Centre (BRC) at Biopolis (IACUC no. 080302). Male BALB/c athymic nude mice (4-5 weeks old, 18-22 g) were purchased from The Jackson Laboratory (Bar Harbor, Me., USA). Mice were housed in Department 1 of the Biological Resource Centre (Biopolis, Singapore) under the standard condition (20.8±2° C., 55±1% relative humidity, 12 hrs light/dark cycle) with rodent diet (Harlan Laboratories, Inc., Indianapolis, Ind., USA) and chlorinated reverse osmosis water supplied in a pathogen-free environment. Briefly, B16 cells were pre-treated with 20 μM of γ- and δ-T3, or palm TRF for 1 week. Then, 5×10^5 pre-treated B16 cells in 100 μl serum-free DMEM were injected subcutaneously into the flank of nude mice using a 1-ml syringe with a 26-gauge needle (Becton Dickinson, Franklin Lakes, N.J., USA). This was followed by a 2-week oral supplementation of γ- and δ-T3, or palm TRF at the dose of 100 mg/kg/day. Altogether, there are four experimental groups: G1, vehicle control; G2, γT3 (100 mg/kg/d); G3, δT3 (100 mg/kg/d); and G4, full spectrum palm TRF (100 mg/kg/d). The mice were weighed daily and the tumors were measured using a Digital Carbon Fiber Caliper (Fisher Scientific, Pittsburgh, Pa., USA) at the 5th and 14th day after innoculation. After 14 days of treatment, the mice were euthanized by CO2 inhalation. Blood samples were collected through cardiac bleeding using a 26-gauge needle. Blood samples were incubated at room temperature for 30 min, followed by centrifugation at 4400 rpm for 30 min at 4° C. Serum, as the supernatant, was separated from plasma and stored at −80° C. Tumors, liver, kidney, spleen, lung, heart, and skin were harvested."}, "tyrosinase mRNA": {"test_system": "tyrosinase mRNA", "experiment": "Reverse transcriptase PCR of tyrosinase mRNA", "type": "cell-based, mouse", "details": "B16 melanoma cells", "description": "Total RNA was isolated using Trizol reagent according to the manufacturer's protocol (Invitrogen, Carlsbad, Calif., USA). cDNA was synthesized using the SuperScript First Strand Synthesis System (Invitrogen, Carlsbad, Calif., USA) and was then amplified by PCR with tyrosinase-specific primers (forward primer, tyrosinase-S,5′-[…]-3′ [−2236/−2217] (SEQ ID NO: 1) and reverse primer, tyrosinase-AS,5′-[…]-3′ [+63/+42]) (SEQ ID NO: 2) and GAPDH specific primers: 5′ to 3′F […] (SEQ ID NO: 3); 5′ to 3′R […] (SEQ ID NO: 4). The PCR cycling protocol was as follows: 30 cycles for 10 min at 95° C., 30 sec at 95° C., 30 sec at 55° C., 1 min at 72° C., and 10 min at 72° C. Glyceraldehyde 3-phosphate dehydrogenase (GAPDH) was amplified as an internal control. The PCR products were electrophoresed on a 2% agarose gel and analyzed using a gel documentation system."}}, "data": [{"smiles": "CC(C)=CCC/C(C)=C/CC/C(C)=C/CCC1(C)CCc2cc(O)c(C)c(C)c2O1", "note": "(stereo not shown) [γ-tocotrienol, 7,8-dimethyltocotrienol]", "values": [{"measurement": "pigmentation of solid tumors", "setting": "[1]", "result": "lighter in colour compared to controls"}, {"measurement": "tumor size", "setting": "[1]", "result": "significantly smaller"}, {"measurement": "tyrosinase mRNA", "setting": "tyrosinase mRNA", "result": "No change of tyrosinase mRNA"}, {"measurement": "tyrosinase mRNA", "setting": "tyrosinase mRNA; listed as γ-T3", "result": "not affected"}]}]}
